This note sets out measurements from patent US10610520B2, “Heterocyclic compound” (Takeda Pharmaceutical Company Limited, priority 2016, dated 2020).

The structures appear in SMILES notation.

In general, inhibition refers to the relative decrease from the control value, in per cent.

The target in this assay is T1, His-hMAGL (recombinant polyhistidine tagged human MAGL protein) (Homo sapiens, UniProt Q99685).
T1 construct: made in house; host or cells: E. coli BL21(DE3)
T1 sequence (Q99685 1-303): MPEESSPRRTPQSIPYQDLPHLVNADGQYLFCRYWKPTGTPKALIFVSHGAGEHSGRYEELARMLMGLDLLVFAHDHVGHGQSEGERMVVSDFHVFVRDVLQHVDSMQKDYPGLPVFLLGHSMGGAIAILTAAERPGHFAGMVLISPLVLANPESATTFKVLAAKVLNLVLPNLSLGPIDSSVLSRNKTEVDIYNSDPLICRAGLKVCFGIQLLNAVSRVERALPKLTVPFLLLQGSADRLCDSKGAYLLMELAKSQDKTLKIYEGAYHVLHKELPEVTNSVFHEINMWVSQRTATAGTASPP
Nature of the assay: Measurement of MAGL inhibitory activity (arachidonic acid production from 2-arachidonylglycerol, RapidFire-mass spectrometry). In kind it is biochemical. Particulars: MAGL inhibitory rate, test compound 10 μM, 60 min preincubation, 2-arachidonylglycerol substrate. The method, boiled down: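 Arachidonic acid formed was quantified by online solid-phase extraction and triple-quadrupole MS in negative SRM mode against a d8 internal standard. Reaction: recombinant His-hMAGL (7.5 ng/mL, pH 7.5 Tris buffer with Triton X-100 and BSA) plus 2-AG (5 μL of 150 μM stock) for 10 min at room temperature, quenched with 2% formic acid. Percent inhibition corrected for enzyme-free background.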
For the compound `O=C1CCC2(CN(C(=O)c3ccc(-c4csc5ccccc45)cc3)C2)N1` [Example 67, 2-(4-(1-benzothiophen-3-yl)benzoyl)-2,5-diazaspiro[3.4]octan-6-one], the inhibition at 10 µM turned out to be 100%.

Turning to `O=C1CCC2(CN(C(=O)N3CCC(Cc4cccc(Cl)c4)CC3)C2)N1` [Example 100, 2-((4-(3-chlorobenzy)lpiperidin-1-yl)carbonyl)-2,5-diazaspiro[3.4]octan-6-one], the inhibition at 10 µM was determined as 102%.

Consider `O=C1CCC2(CN(C(=O)c3ccc(-c4ccc(C(F)(F)F)cc4Cl)cc3)C2)N1` [Example 47, 2-((2′-chloro-4′-(trifluoromethyl)biphenyl-4-yl)carbonyl)-2,5-diazaspiro[3.4]octan-6-one], for which the inhibition at 10 µM was 96%.

`O=C1CCC2(CN(C(=O)c3ccc(-c4ccccc4)cc3Cl)C2)N1` [Example 117, 2-((3-chlorobiphenyl-4-yl)carbonyl)-2,5-diazaspiro[3.4]octan-6-one]: the inhibition at 10 µM was found to be 81%.

Turning to `Cc1cccc(-c2ccc3c(Cl)c(C(=O)N4CC5(CCC(=O)N5)C4)sc3c2)c1` [Example 186, 2-((3-chloro-6-(3-methylphenyl)-1-benzothiophen-2-yl)carbonyl)-2,5-diazaspiro[3.4]octan-6-one], the inhibition at 10 µM stood at 101%.

In the case of `O=C1NC2(CO1)CN(C(=O)c1sc3cc(OC(F)(F)F)c(Cl)cc3c1Cl)C2` [Example 298, 2-((3,5-dichloro-6-(trifluoromethoxy)-1-benzothiophen-2-yl)carbonyl)-7-oxa-2,5-diazaspiro[3.4]octan-6-one], the inhibition at 10 µM stood at 100%.

For `O=C1CCC2(CN(C(=O)c3ccc(COc4ccccc4C(F)(F)F)cc3)C2)N1` [Example 5, 2-(4-((2-(trifluoromethyl)phenoxy)methyl)benzoyl)-2,5-diazaspiro[3.4]octan-6-one], the inhibition at 10 µM turned out to be 99%.

`Cc1c(C(=O)N2CC3(CCC(=O)N3)C2)sc2cc(C(F)(F)F)ccc12` [Example 366, 2-((3-methyl-6-(trifluoromethyl)-1-benzothiophen-2-yl)carbonyl)-2,5-diazaspiro[3.4]octan-6-one]: the inhibition at 10 µM came to 99%.

Turning to `O=C1CCC2(CN(C(=O)N3CCC(Cc4ccc(C(F)(F)F)cc4)CC3)C2)N1` [Example 106, 2-((4-(4-(trifluoromethyl)benzyl)piperidin-1-yl)carbonyl)-2,5-diazaspiro[3.4]octan-6-one], the inhibition at 10 µM amounted to 101%.

Turning to `O=C1NC2(CO1)CN(C(=O)c1sc3cc(C4CC4)cc(F)c3c1Cl)C2` [Example 311, 2-((3-chloro-6-cyclopropyl-4-fluoro-1-benzothiophen-2-yl)carbonyl)-7-oxa-2,5-diazaspiro[3.4]octan-6-one], the inhibition at 10 µM is 101%.

On to `Cc1cc(F)c(F)c2sc(C(=O)N3CCC4(COC(=O)N4)C3)c(Cl)c12` (centres unmarked) [Example 328, 7-((3-chloro-6,7-difluoro-4-methyl-1-benzothiophen-2-yl)carbonyl)-3-oxa-1,7-diazaspiro[4.4]nonan-2-one], for which the inhibition at 10 µM was 99%.

Take `O=C1CCC2(CN(C(=O)c3sc(-c4cccc(C(F)(F)F)c4)cc3Cl)C2)N1` [Example 177, 2-((3-chloro-5-(3-(trifluoromethyl)phenyl)-2-thienyl)carbonyl)-2,5-diazaspiro[3.4]octan-6-one]: the inhibition at 10 µM was found to be 98%.

Take `O=C1NC2(CO1)CN(C(=O)c1sc3c(C(F)(F)F)cccc3c1OC(F)F)C2` [Example 272, 2-((3-(difluoromethoxy)-7-(trifluoromethyl)-1-benzothiophen-2-yl)carbonyl)-7-oxa-2,5-diazaspiro[3.4]octan-6-one]: the inhibition at 10 µM came to 100%.

Turning to `Cc1sccc1-c1ccc2c(Cl)c(C(=O)N3CC4(CCC(=O)N4)C3)sc2c1` [Example 234, 2-((3-chloro-6-(2-methyl-3-thienyl)-1-benzothiophen-2-yl)carbonyl)-2,5-diazaspiro[3.4]octan-6-one], the inhibition at 10 µM came to 101%.

Turning to `O=C1CCC2(CN(C(=O)c3sc4cc(-c5ccccc5F)ccc4c3Cl)C2)N1` [Example 38, 2-((3-chloro-6-(2-fluorophenyl)-1-benzothiophen-2-yl)carbonyl)-2,5-diazaspiro[3.4]octan-6-one], the inhibition at 10 µM came to 103%.

With `Cc1cc(CO[C@H]2C[C@H](C(=O)N3CC4(COC(=O)N4)C3)C2)ccc1Cl` [Example 358, 2-((trans-3-((4-chloro-3-methylbenzyl)oxy)cyclobutyl)carbonyl)-7-oxa-2,5-diazaspiro[3.4]octan-6-one], the inhibition at 10 µM is 100%.

On to `CC(C)c1ccc(-c2ccc3c(Cl)c(C(=O)N4CC5(CCC(=O)N5)C4)sc3c2)cc1` [Example 187, 2-((3-chloro-6-(4-isopropylphenyl)-1-benzothiophen-2-yl)carbonyl)-2,5-diazaspiro[3.4]octan-6-one], for which the inhibition at 10 µM was determined as 94%.

Turning to `O=C1CCC2(CN(C(=O)N3CC(COc4ccc(C(F)(F)F)c(F)c4)C3)C2)N1` [Example 22, 2-((3-((3-fluoro-4-(trifluoromethyl)phenoxy)methyl)azetidin-1-yl)carbonyl)-2,5-diazaspiro[3.4]octan-6-one], the inhibition at 10 µM turned out to be 100%.

`O=C1NC2(CO1)CN(C(=O)c1sc3c(F)ccc(OC(F)F)c3c1Cl)C2` [Example 313, 2-((3-chloro-4-(difluoromethoxy)-7-fluoro-1-benzothiophen-2-yl)carbonyl)-7-oxa-2,5-diazaspiro[3.4]octan-6-one]: the inhibition at 10 µM was determined as 101%.

On to `O=C1CCC2(CN(C(=O)c3ccc(-c4ccc(OC(F)(F)F)cc4)cc3)C2)N1` [Example 58, 2-((4′-(trifluoromethoxy)biphenyl-4-yl)carbonyl)-2,5-diazaspiro[3.4]octan-6-one], for which the inhibition at 10 µM was 96%.

Consider `O=C1CCC2(CN(C(=O)c3sc4cc(-c5cc(F)cc(F)c5)ccc4c3Cl)C2)N1` [Example 214, 2-((3-chloro-6-(3,5-difluorophenyl)-1-benzothiophen-2-yl)carbonyl)-2,5-diazaspiro[3.4]octan-6-one], for which the inhibition at 10 µM is 99%.

As to `Cc1cc(Cl)ccc1CC1CCN(C(=O)N2CC3(CCC(=O)N3)C2)CC1` [Example 104, 2-((4-(4-chloro-2-methylbenzyl)piperidin-1-yl)carbonyl)-2,5-diazaspiro[3.4]octan-6-one], the inhibition at 10 µM was determined as 98%.

As to `Cc1cccc(-c2ccc3c(Cl)c(C(=O)N4CC5(CCC(=O)N5)C4)sc3c2)c1F` [Example 208, 2-((3-chloro-6-(2-fluoro-3-methylphenyl)-1-benzothiophen-2-yl)carbonyl)-2,5-diazaspiro[3.4]octan-6-one], the inhibition at 10 µM was 100%.

As for `O=C1NC2(CO1)CN(C(=O)c1sc3cc(OC(F)(F)F)ccc3c1C(F)F)C2` [Example 264, 2-((3-(difluoromethyl)-6-(trifluoromethoxy)-1-benzothiophen-2-yl)carbonyl)-7-oxa-2,5-diazaspiro[3.4]octan-6-one], the inhibition at 10 µM was 100%.

Regarding `O=C1CCC2(CN(C(=O)c3sc4cc(-c5cccc(OC(F)(F)F)c5)ccc4c3Cl)C2)N1` [Example 201, 2-((3-chloro-6-(3-(trifluoromethoxy)phenyl)-1-benzothiophen-2-yl)carbonyl)-2,5-diazaspiro[3.4]octan-6-one], the inhibition at 10 µM came out at 98%.

Regarding `O=C1NC2(CO1)CN(C(=O)c1sc3cccc(Cl)c3c1Cl)C2` [Example 289, 2-((3,4-dichloro-1-benzothiophen-2-yl)carbonyl)-7-oxa-2,5-diazaspiro[3.4]octan-6-one], the inhibition at 10 µM turned out to be 101%.
